Patent publication US8198273B2, “Compounds and methods for kinase modulation, and indications therefor” (Plexxikon Inc., priority 2009, dated 2012)

Tests used:
[1] = tested on: COLO205 colon adenocarcinoma cells (B-Raf V600E); test: COLO205 cell growth inhibition (ATPlite); type: cell-based; conditions: Homo sapiens, COLO 205, 72 h; COLO205, 3 days incubation
Outline: (§1)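 Cells plated overnight, then exposed 3 days at 37° C to 8-point 1:3 compound dilutions topping at 10 μM final. Viability read as ATPlite luminescence, proportional to cell number; IC50 from luminescence versus concentration.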

B-Raf = B-Raf (Homo sapiens, UniProt P15056); test: B-Raf biochemical kinase inhibition (AlphaScreen, biotin-MEK1 substrate); conditions: 100 μM ATP
B-Raf, sequence (P15056 whole entry): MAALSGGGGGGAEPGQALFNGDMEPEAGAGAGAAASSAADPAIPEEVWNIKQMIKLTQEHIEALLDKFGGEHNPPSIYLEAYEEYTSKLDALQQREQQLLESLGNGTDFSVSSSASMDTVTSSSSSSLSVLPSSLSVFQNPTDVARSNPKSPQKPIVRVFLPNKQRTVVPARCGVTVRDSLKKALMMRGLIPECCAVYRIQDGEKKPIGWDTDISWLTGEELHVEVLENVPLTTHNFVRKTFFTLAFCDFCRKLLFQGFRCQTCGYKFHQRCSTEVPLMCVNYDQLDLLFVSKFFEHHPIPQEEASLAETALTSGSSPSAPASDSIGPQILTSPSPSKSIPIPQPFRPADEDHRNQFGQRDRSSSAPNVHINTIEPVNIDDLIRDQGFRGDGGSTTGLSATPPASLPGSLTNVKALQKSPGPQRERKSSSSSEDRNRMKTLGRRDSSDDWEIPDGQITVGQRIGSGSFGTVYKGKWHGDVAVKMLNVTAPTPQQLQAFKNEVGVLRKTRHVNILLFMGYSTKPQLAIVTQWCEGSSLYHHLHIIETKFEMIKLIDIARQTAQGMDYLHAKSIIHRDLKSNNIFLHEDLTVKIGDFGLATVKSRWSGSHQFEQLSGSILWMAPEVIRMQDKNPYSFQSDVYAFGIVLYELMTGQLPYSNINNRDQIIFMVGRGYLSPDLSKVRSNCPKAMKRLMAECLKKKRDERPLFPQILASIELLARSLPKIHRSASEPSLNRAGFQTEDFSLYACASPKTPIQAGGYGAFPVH
Outline: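 IC50 derived from AlphaScreen signal plotted against compound concentration. Final ATP 100 μM; 3 h incubation at room temperature. Eight-point 3-fold dilution series prepared from a 0.1 mM DMSO stock.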

CYP1A2 = target: T1, CYP1A2 (Homo sapiens, UniProt P05177); test: CYP1A2 inhibition (fluorescent substrate); type: in vitro ADME; conditions: CYP1A2, CEC substrate; read-out: Cyp IC50 1A2
T1 sequence (P05177 1-516): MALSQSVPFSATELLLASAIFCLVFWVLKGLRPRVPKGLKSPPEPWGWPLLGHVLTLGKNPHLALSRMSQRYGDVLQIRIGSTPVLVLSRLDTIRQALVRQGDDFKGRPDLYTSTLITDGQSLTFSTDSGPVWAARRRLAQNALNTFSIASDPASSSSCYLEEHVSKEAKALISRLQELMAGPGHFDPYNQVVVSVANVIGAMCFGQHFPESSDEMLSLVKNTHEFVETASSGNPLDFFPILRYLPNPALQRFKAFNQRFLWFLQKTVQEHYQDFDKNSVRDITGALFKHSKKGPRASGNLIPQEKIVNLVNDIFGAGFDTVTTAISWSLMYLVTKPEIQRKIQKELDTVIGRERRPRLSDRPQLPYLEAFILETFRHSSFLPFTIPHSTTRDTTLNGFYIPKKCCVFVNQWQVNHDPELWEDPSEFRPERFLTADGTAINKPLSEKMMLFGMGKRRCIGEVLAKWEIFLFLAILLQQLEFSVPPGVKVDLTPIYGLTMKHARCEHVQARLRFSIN
Experimental: CYP (Cytochrome P450) enzymes are the major drug metabolizing enzymes present in the liver. The inhibition of CYP enzyme activity (IC50) for each of CYP1A2, CYP2C19, CYP2C9, CYP2D6, CYP3A4(BFC) and CYP3A4(BQ) is determined for compounds, where inhibition of metabolism of a known substrate leads to a decrease in the fluorescence of the metabolized product. The fluorescence of the product is monitored as a function of compound concentration.
Compounds are dissolved in dimethyl sulfoxide to a concentration of 100 mM. These are diluted 1 μL into 82 μL of acetonitrile. […] These are then serially diluted 1:1 (160 μL to 160 μL co-factor mix) for a total of 10 points. A 10 μL aliquot of this final mixture is dispensed into 384 well assay plates and incubated for 10 minutes at 37° C. […] Assay plates are incubated at 37° C. […] The signal versus compound concentration is used to determine the IC50. The enzymes and substrates for this assay are obtained from BD Biosciences.

[2] = tested on: SW620 colon adenocarcinoma cells (wild-type B-RAF); test: SW620 cell growth inhibition (ATPlite); type: cell-based; conditions: Homo sapiens, SW-620, 72 h; SW620, 3 days incubation
Outline: as §1

| SMILES | IC50 [1] [µM] | IC50 (B-Raf) [µM] | IC50 (CYP1A2) [µM] | IC50 [2] [µM] |
| --- | --- | --- | --- | --- |
| CCCS(=O)(=O)Nc1ccc(F)c(C(=O)c2c[nH]c3ncc(-c4ccc(NS(C)(=O)=O)cc4)cc23)c1F [P-2165, Propane-1-sulfonic acid {2,4-difluoro-3-[5-(4-methanesulfonylamino-phenyl)-1H-pyrrolo[2,3-b]pyridine-3-carbonyl]-phenyl}-amide] | < 1 | < 0.01 | > 10 | < 10 |
| N#Cc1ccnc2[nH]cc(C(=O)c3c(F)ccc(NS(=O)(=O)c4cc(F)ccc4F)c3F)c12 [P-2036, N-[3-(4-Cyano-1H-pyrrolo[2,3-b]pyridine-3-carbonyl)-2,4-difluoro-phenyl]-2,5-difluoro-benzenesulfonamide] | < 1 | < 0.01 | > 10 | > 10 |
| CCCS(=O)(=O)Nc1ccc(F)c(C(=O)c2c[nH]c3ncc(-c4ccc(S(=O)(=O)N5CCOCC5)cc4)cc23)c1F [P-2166, Propane-1-sulfonic acid (2,4-difluoro-3-{5-[4-(morpholine-4-sulfonyl)-phenyl]-1H-pyrrolo[2,3-b]pyridine-3-carbonyl}-phenyl)-amide] | < 0.1 | < 0.01 | > 10 | < 10 |
| COc1ncc(-c2cnc3[nH]cc(C(=O)c4c(F)ccc(NS(=O)(=O)c5c(F)cccc5F)c4F)c3c2)cn1 [P-2043, N-{2,4-Difluoro-3-[5-(2-methoxy-pyrimidin-5-yl)-1H-pyrrolo[2,3-b]pyridine-3-carbonyl]-phenyl}-2,6-difluoro-benzenesulfonamide] | < 1 | < 0.01 | > 10 | > 10 |
| CCCS(=O)(=O)Nc1ccc(F)c(C(=O)c2c[nH]c3ncc(-c4ccc(S(=O)(=O)N(C)C)cc4)cc23)c1F [P-2185, 4-{3-[2,6-Difluoro-3-(propane-1-sulfonylamino)-benzoyl]-1H-pyrrolo[2,3-b]pyridin-5-yl}-N,N-dimethyl-benzenesulfonamide] | < 0.1 | < 0.01 | > 10 | > 10 |
| COc1ccnc2[nH]cc(C(=O)c3c(F)ccc(NS(=O)(=O)c4cccnc4)c3F)c12 [P-2073, Pyridine-3-sulfonic acid [2,4-difluoro-3-(4-methoxy-1H-pyrrolo[2,3-b]pyridine-3-carbonyl)-phenyl]-amide] | < 10 | < 0.1 | > 10 | > 10 |
| COc1ncc(-c2cnc3[nH]cc(C(=O)c4c(F)ccc(NS(=O)(=O)c5cc(F)ccc5F)c4F)c3c2)cn1 [P-2042, N-{2,4-Difluoro-3-[5-(2-methoxy-pyrimidin-5-yl)-1H-pyrrolo[2,3-b]pyridine-3-carbonyl]-phenyl}-2,5-difluoro-benzenesulfonamide] | < 0.1 | < 0.01 | > 10 | > 10 |
| CCCS(=O)(=O)Nc1ccc(F)c(C(=O)c2c[nH]c3ncc(-c4ccc(OCCCN5CCCC5)nc4)cc23)c1F [P-2235, Propane-1-sulfonic acid (2,4-difluoro-3-{5-[6-(3-pyrrolidin-1-yl-propoxy)-pyridin-3-yl]-1H-pyrrolo[2,3-b]pyridine-3-carbonyl}-phenyl)-amide] | < 0.1 | < 0.01 | > 10 | > 10 |
| CCCS(=O)(=O)Nc1ccc(F)c(C(=O)c2c[nH]c3ncc(C#CCOC)cc23)c1F [P-2239, Propane-1-sulfonic acid {2,4-difluoro-3-[5-(3-methoxy-prop-1-ynyl)-1H-pyrrolo[2,3-b]pyridine-3-carbonyl]-phenyl}-amide] | < 1 | < 0.1 | > 10 | > 10 |
| COc1ccnc2[nH]cc(C(=O)c3c(F)ccc(NS(=O)(=O)c4ccccc4F)c3F)c12 [P-2021, N-[2,4-Difluoro-3-(4-methoxy-1H-pyrrolo[2,3-b]pyridine-3-carbonyl)-phenyl]-2-fluoro-benzenesulfonamide] | < 5 | < 0.1 | > 10 | > 10 |
| CCCc1ccc(-c2cnc3[nH]cc(C(=O)c4c(F)ccc(NS(=O)(=O)CCC)c4F)c3c2)cn1 [P-2224, Propane-1-sulfonic acid {2,4-difluoro-3-[5-(6-propyl-pyridin-3-yl)-1H-pyrrolo[2,3-b]pyridine-3-carbonyl]-phenyl}-amide] | < 1 | < 0.01 | > 10 | > 10 |
| COc1ncc(-c2cnc3[nH]cc(C(=O)c4c(F)ccc(NS(=O)(=O)c5cccc(F)c5)c4F)c3c2)cn1 [P-2045, N-{2,4-Difluoro-3-[5-(2-methoxy-pyrimidin-5-yl)-1H-pyrrolo[2,3-b]pyridine-3-carbonyl]-phenyl}-3-fluoro-benzenesulfonamide] | < 1 | < 0.01 | > 10 | > 10 |
| O=C(c1c(F)ccc(NS(=O)(=O)c2c(F)cccc2F)c1F)c1c[nH]c2nccc(Cl)c12 [P-2033, N-[3-(4-Chloro-1H-pyrrolo[2,3-b]pyridine-3-carbonyl)-2,4-difluoro-phenyl]-2,6-difluoro-benzenesulfonamide] | < 10 | < 0.1 | > 10 | > 10 |
| O=C(c1c(F)ccc(NS(=O)(=O)c2cc(F)ccc2F)c1F)c1c[nH]c2nccc(Cl)c12 [P-2018, N-[3-(4-Chloro-1H-pyrrolo[2,3-b]pyridine-3-carbonyl)-2,4-difluoro-phenyl]-2,5-difluoro-benzenesulfonamide] | < 5 | < 0.01 | > 10 | > 10 |
| CCCS(=O)(=O)Nc1ccc(F)c(C(=O)c2c[nH]c3ncc(-c4cnc(N5CCCC5)nc4)cc23)c1F [P-2219, Propane-1-sulfonic acid {2,4-difluoro-3-[5-(2-pyrrolidin-1-yl-pyrimidin-5-yl)-1H-pyrrolo[2,3-b]pyridine-3-carbonyl]-phenyl}-amide] | < 0.1 | < 0.1 | > 10 | > 10 |
| CCCS(=O)(=O)Nc1ccc(F)c(C(=O)c2c[nH]c3ncc(-c4ccc(Cl)nc4)cc23)c1F [P-2154, Propane-1-sulfonic acid {3-[5-(6-chloro-pyridin-3-yl)-1H-pyrrolo[2,3-b]pyridine-3-carbonyl]-2,4-difluoro-phenyl}-amide] | < 1 | < 0.01 | > 10 | > 10 |
| COc1ccnc2[nH]cc(C(=O)c3c(F)ccc(NS(=O)(=O)c4cc(F)ccc4F)c3F)c12 [P-2022, N-[2,4-Difluoro-3-(4-methoxy-1H-pyrrolo[2,3-b]pyridine-3-carbonyl)-phenyl]-2,5-difluoro-benzenesulfonamide] | < 5 | < 0.1 | > 10 | > 10 |
| CCCS(=O)(=O)Nc1ccc(F)c(C(=O)c2c[nH]c3ncc(-c4ccc(OCCN5CCCC5)nc4)cc23)c1F [P-2233, Propane-1-sulfonic acid (2,4-difluoro-3-{5-[6-(2-pyrrolidin-1-yl-ethoxy)-pyridin-3-yl]-1H-pyrrolo[2,3-b]pyridine-3-carbonyl}-phenyl)-amide] | < 0.1 | < 0.01 | > 10 | > 10 |
| COc1ccnc2[nH]cc(C(=O)c3c(F)ccc(NS(=O)(=O)c4c(F)cccc4F)c3F)c12 [P-2031, N-[2,4-Difluoro-3-(4-methoxy-1H-pyrrolo[2,3-b]pyridine-3-carbonyl)-phenyl]-2,6-difluoro-benzenesulfonamide] | < 5 | < 1 | > 10 | > 10 |
| N#Cc1cnc2[nH]cc(C(=O)c3c(F)ccc(NS(=O)(=O)c4c(F)cccc4F)c3F)c2c1 [P-2029, N-[3-(5-Cyano-1H-pyrrolo[2,3-b]pyridine-3-carbonyl)-2,4-difluoro-phenyl]-2,6-difluoro-benzenesulfonamide] | < 5 | < 0.1 | > 10 | > 10 |
